Results taken from patent publication US10544460B2, “Homeobox transcription factor ventx regulates differentiation and maturation of human dendritic cells” (priority 2013, dated 2020).

Key:
[1] = tested on: VentX; test: VentX knockdown efficiency in monocytes / monocyte-derived DCs; type: cell-based, human; conditions: 5 days after transfection
Source text: Following a recent finding that VentX is expressed in human primary monocytes, VentX expression was examined during primary monocytes to dendritic cells differentiation induced by GM-CSF and IL-4 treatment. […] To explore potential role of VentX in DC differentiation, the effects of VentX knockdown on in vitro DCs differentiation were examined. […] (Iwamoto, et al. 2007 J Immunol 179(3): p. 1449-57; Gabriele, et al. 2004 Blood 103(3): p. 980-7.) To obtain a long-lasting knockdown effect of VentX in monocytes, a morpholino (MO) mediated VentX knockdown strategy was developed. Two different morpholino antisense oligonucleotides were designed (VentX MO and VentX MO-2) and tested for the knockdown efficiency of VentX. […] Freshly isolated CD14^+CD1a^− monocytes differentiate in vitro into immature CD14^−CD1a^+ DCs when cultured with GM-CSF and IL-4. […] To corroborate the role of VentX in regulating DCs differentiation, VentX was ectopically expressed in primary monocytes and the CD14^−CD1a^+ cells were determined after 3 days of cytokines treatment. […]
(§1) Dendritic & Antigen Presenting Cell PCR Array was purchased from SABiosciences (Valencia, Calif.). […] (Wu, et al. 2011 J Clin Invest 121(7): p. 2599-613.) Incorporated BrdU was detected with PE-conjugated anti-BrdU antibody and analyzed with flow cytometry.

[2] = tested on: human primary monocytes; test: Primary monocyte to dendritic cell differentiation induced by GM-CSF and IL4 (flow cytometry of surface antigens); type: cell-based
Experimental: Peripheral blood mononuclear cells (PBMC) from healthy adult donors at Dana-Farber Cancer Institute were isolated by Ficoll density gradient centrifugation. CD14^+ monocytes were purified from PBMCs using anti-CD14 antibody coated magnetic microbeads (Miltenyi Biotec, Auburn, Calif.). Monocytes were cultured in 12-well plates at 1×10^6 cells/ml with RPMI 1640 medium containing 10% fetal bovine serum (FBS), GM-CSF (100 ng/ml) and IL4 (20 ng/ml) (PeproTech, Rocky Hill, N.J.). Cytokines were added to cultures every 2 or 3 days for a total of 5 days to induce dendritic cells differentiation. Neutralizing antibody against IL6 was purchased from R&D Systems (Minneapolis, Minn.) and used at daily dose of 2.5 μg/ml. Intestinal mucosa was obtained from surgically resected specimens from patients diagnosed with inflammatory bowel diseases including Crohn's disease and ulcerative colitis. Specimens were taken from both inflamed and non-inflamed mucosa and were confirmed macroscopically and microscopically. Lamina propria mononuclear cells were isolated using previously described techniques. (Dillon, et al. 2010 J Immunol 184(12): p. 6612-21; Kamada, et al. 2008 J Clin Invest 118(6): p. 2269-80.) LPDCs were purified as the fraction of CD19^−CD1c^+ cells with magnetic microbeads (Miltenyi Biotec). To promote maturation of DCs, 100 ng/ml of E Coli LPS (Sigma-Aldrich) was added to the medium and further cultured for 24 hours. Experiments with human materials were performed in accordance with guidelines approved by the institutional review committee of Brigham and Women's Hospital. […]
(§2) Phenotypic analyses of DCs and THP1 cells were performed with flow cytometry after immunostaining of cells with fluorescence dye conjugated antibodies (eBioscience, San Diego, Calif.). […] Stained cells were analyzed with FACScan flow cytometer (BD Bioscience) using FlowJo software. Results are expressed as the percentage of positive cells or mean fluorescence intensity (MFI) values after subtraction of the MFI obtained from the isotype control antibody.

[3] = tested on: DCs; type: cell-based, human; conditions: after MO transfection; data not shown
Source text: Following a recent finding that VentX is expressed in human primary monocytes, VentX expression was examined during primary monocytes to dendritic cells differentiation induced by GM-CSF and IL-4 treatment. […] To explore potential role of VentX in DC differentiation, the effects of VentX knockdown on in vitro DCs differentiation were examined. […] (Iwamoto, et al. 2007 J Immunol 179(3): p. 1449-57; Gabriele, et al. 2004 Blood 103(3): p. 980-7.) To obtain a long-lasting knockdown effect of VentX in monocytes, a morpholino (MO) mediated VentX knockdown strategy was developed. Two different morpholino antisense oligonucleotides were designed (VentX MO and VentX MO-2) and tested for the knockdown efficiency of VentX. […] Freshly isolated CD14^+CD1a^− monocytes differentiate in vitro into immature CD14^−CD1a^+ DCs when cultured with GM-CSF and IL-4. (Bell, et al. 2001 J Immunol 166(8): p. 4958-67.) Surface expression of CD1a antigen was examined in monocytes transfected with control MO or VentX MO respectively. […] To corroborate the role of VentX in regulating DCs differentiation, VentX was ectopically expressed in primary monocytes and the CD14^−CD1a^+ cells were determined after 3 days of cytokines treatment. Overexpression of VentX in monocytes greatly accelerated the DCs differentiation (FIG. 1E-F).

[4] = tested on: IL6; test: Cytokine expression in transfected monocytes (reverse transcription PCR and intracellular staining); type: cell-based, human
Experimental: To elucidate the mechanisms underlying VentX regulated DCs differentiation and maturation, expression level of cytokines known to be important for DCs development was analyzed by reverse transcription PCR and intracellular staining. […] It has been shown that IL6 inhibits DC differentiation and maturation from both CD14^+ monocytes and CD34^+ progenitor cells. […] The effect of VentX on the activity of […] IL6 promoter luciferase reporter and several deletion mutant constructs was assessed. […] To address this question, neutralizing antibody against IL6 was added to the culture medium of VentX MO transfected monocytes and differentiation of DCs was assessed through flow cytometry analysis of CD1a surface expression.
as §2, with “antibody. […]” for “antibody.”

[5] = tested on: LPDCs; test: Pro-inflammatory cytokine mRNA in DCs treated with prednisolone and LPS; type: cell-based, human; conditions: prednisolone, LPS added 24 hours later, harvested at 48 hours, FIG. 6G
Experimental: (§3) FIG. 6: VentX is required for the maturation of lamina propria DCs. (A) LPDCs were isolated from inflamed and non-inflamed intestinal mucosa of five IBD patients. VentX level was determined with real time PCR. (B) LPDCs were transfected with siRNA targeting VentX or control GFP through electroporation followed by culturing in medium for two days. Then cells were stimulated with LPS for overnight to induce maturation and harvested for flow cytometry analysis of surface markers and intracellular cytokines/chemokines. Filled histograms indicate siGFP transfection. […] Results are expressed as the percentage of MFI normalized to control. […] (D) LPDCs transfected with siGFP or siVentX were analyzed for the mRNA expression levels of indicated genes. […] (F) DCs were treated with prednisolone (10 μg/ml) for 48 hours or mock treated, and VentX level was determined with real time PCR. […]
(§4) Aberrant activation of DCs has been implicated in mucosal inflammation in pathogenesis of inflammatory bowl diseases. […] VetnX expression levels in these DCs were determined by RT-PCR methods. […]
as §1

[6] = tested on: VentX; test: VentX expression in LPDCs treated with prednisolone (real time PCR); type: cell-based, human; conditions: prednisolone 10 μg/ml, 48 hours, vs mock treated; FIG. 6F
Experimental: as §3, §4, §1

Compound | VentX expression in DCs compared with control sequence [1] | expression of CD16, CD36, CD64, mannose receptor (MR) and TLR4 ([2]; MO transfected DCs) | percentage of CD14-CD1a+ cells ([2]; monocytes + GM-CSF and IL4, 5 days, in comparison with control MO, FIG. 1A-B) | surface expression of CD1b, CD1c and CD11c ([2]; monocytes + GM-CSF and IL4, 5 days, vs control MO) | cell death in DCs [3] | IL1β, TNFα and IL10 expression ([4]; MO transfected cells, data not shown) | IL6 expression ([4]; monocytes + GM-CSF and IL4, 5 days, mRNA and intracellular level, FIGS. 3A and C) | expression of pro-inflammatory cytokines, such as the IL2, TNF, CCL5 [5] | VentX expression in LPDCs [6]
5′-GAGCCCGGTTTGCATACACGGCTAA-3′ (morpholino, further chemistry not given here) [VentX MO-2, Morpholino antisense oligonucleotide targeting VentX] | inhibited VentX expression | – | – | – | – | – | – | – | –
5′-TACTCAACCCTGACATAGAGGGTAA-3′ (morpholino, further chemistry not given here) [VentX MO, Morpholino antisense oligonucleotide targeting VentX] | inhibited VentX expression | remained unchanged | substantial reduction | similarly downregulated | did not cause excess cell death | no apparent changes | consistently increased | – | –
C[C@]12C=CC(=O)C=C1CC[C@@H]1[C@@H]2[C@@H](O)C[C@@]2(C)[C@H]1CC[C@]2(O)C(=O)CO [prednisolone] | – | – | – | – | – | – | – | dramatically decreased | dramatically decreased
